Results as given in patent publication US8048870B2, “Apoptosis-inducing antineoplastic silver (I) coordination complexes” (priority 2005, dated 2011).

Legend:
[1] = system: T-47D cells; assay: DeadEnd Colorimetric TUNEL assay for in-situ apoptosis, T-47D; assay type: cell-based, human; settings: 18 hours of incubation
Method: (§1) Detection of in-situ apoptosis was performed by the DeadEnd Colorimetric TUNEL (terminal deoxynucleotidyltransferase nick end labeling) assay for the detection of apoptosis in cultured cells as described in Promega kit (Promega Corporation-2800 Woods Hollow Road, Madison, Wis. 53711-5399, USA). Briefly, control and apoptosis-induced cells were centrifuged, washed with PBS, and were fixed on glass slides coated with poly-L-lysine (Sigma-Aldrich). The cells were fixed by immersing the slides in 10% buffered formalin, 4% paraformaldehyde solution for 25 minutes at room temperature. The fixed cells were then washed twice with fresh PBS for 5 minutes at room temperature. The cells were permeabilized by immersing the slides in 0.2% Triton® X-100 solution in PBS for 5 minutes at room temperature. The slides were then rinsed twice with PBS for 5 minutes each at room temperature. The excess liquid was then removed by tapping the slides, and the cells were covered with 100 μL of Equilibration Buffer, and the slides were equilibrated for 8 minutes at room temperature. Then, 100 μL of rTdT reaction mix were added and blotted around the equilibrated areas. The slides were then incubated at 37° C. for an hour inside a humidifier. Then, the reactions were terminated, the slides were washed and 0.3% hydrogen peroxide, and other reagents and washing steps were conducted according to the manufacturer's instructions. The slides were then observed under a light microscope for apoptotic staining. For comparative purposes, apoptotic studies were also performed on cisplatin. […]
(§2) To examine the mode of inherent chemotherapeutic activities of silver (I) complexes, apoptosis was detected by the TUNEL assay for each cell line studies for Phases I, II and III identified above. […] The 18 and 6-hour incubation periods were chosen because it was determined in previous experiments of this work that induction of apoptosis of silver (I) complex was within these times for these two cell lines.

[2] = system: Jurkat cells; assay: DeadEnd Colorimetric TUNEL assay for in-situ apoptosis, Jurkat; assay type: cell-based, human; settings: 6 hours of incubation
Method: as §1, §2

[3] = system: T-47D human breast carcinoma; assay: Cytotoxicity (% inhibition), trypan blue dye exclusion viable cell count, T-47D; assay type: cell-based
Method: The chemotherapeutic activities of the silver (I) coordination complex were determined on T-47D human breast carcinoma and Jurkat T-cell acute lymphoblastic leukemia, and compared with cisplatin (Pt(NH3)2Cl2) at 385 μg/mL, corresponding to 250 μg/mL platinum, which is the same concentration used for Ag for the experiments described in Examples 1 and 2, below. The two tumor cell lines were chosen very carefully so as to include solid (T-47D) and disseminated (Jurkat) neoplasia. Cells are plated in a 96-well flat bottom tissue culture plates at 50,000 cells/well. The experiments were conducted by serial dilution.
All cell lines were grown and tested in complete RPMI-1640 medium supplemented with 10% FBS, 40 μg/mL GEN, HEPES buffer of pH=7.2, 2 mM L-glutamine and sodium pyruvate. Plates were incubated in 5% CO2 at 37° C. in a humidified incubator for 24 hrs. Human tumor cells were maintained in the log phase by routine passaging every 2-3 days.
To assess % inhibition of tumor cells, the number of viable cells were counted by trypan blue dye exclusion method on a hemocytometer by microscopy, and adjusted for concentration of cells/mL. Briefly, each well was plated and washed with PBS twice and then harvested with 0.5 mL of Trypsin/EDTA. Cells were diluted with 1 ml of culture media and stained with trypan blue dye.
To examine if there was any interaction between culture medium and test reagents, the test culture was also inoculated with the present reagents without the presence of any of the drugs. […] All experiments were done in triplicates, and the results are averaged and reported.
Regression models were applied to the data to assess the correlation between % inhibition and concentration. Multiple curve estimation procedure was employed, and the relative fit for each model was determined on the basis of the values of the correlation coefficient, r^2; the fit that gives r^2 values closer to 1.0 was selected. The regression equations were then integrated over the concentration intervals for each phase, and their sum was taken as the AUCt>24.

[4] = patients, i.v. injections; cited from earlier work

Row | Compound | apoptotic staining (TUNEL) ([1]; 0.0076 μg/mL (Phase I)) | apoptotic staining (TUNEL) ([1]; 3.906 μg/mL (Phase II)) | apoptotic staining (TUNEL) ([1]; 15.625 μg/mL (Phase III)) | apoptotic staining (TUNEL) ([2]; 0.0076 μg/mL (Phase I)) | apoptotic staining (TUNEL) ([2]; 3.906 μg/mL (Phase II)) | apoptotic staining (TUNEL) ([2]; 15.625 μg/mL (Phase III)) | calculated AUCt>24 ([3]; Phase I) | calculated AUCt>24 ([3]; Phase II) | calculated AUCt>24 ([3]; Phase III) | average % inhibition ([3]; range of 0.0019-0.0152 μg/mL metal) | LOAEL (lowest-observed-adverse-effect level) for argyria [4]
1 | N.N.[Cl][Pt][Cl] [CIS-Pt, cis-diaminedichloroplatinum (II)] | absent | evident | evident | evident | evident | evident | 0.0 cfu·μg/mL | 2.05 cfu·μg/mL | 107 cfu·μg/mL | 0% | 
2 | silver arsphenamine |  |  |  |  |  |  |  |  |  |  | 0.014 mg/kg/day
